Experimental data as given in patent EP0583976A2, “Gastroprotective complexes with cyclodextrin” (Bristol-Myers Squibb Company, priority 1992, dated 1994).

Key:
[1] = pH of gastric fluid sample obtained from the antrum after dosing; format: in vivo, beagles; settings: oral, with 975 mg aspirin (ASA), antacid about 15 mEq where present
Procedure: (§1) The product obtained above was tested as follows: 10 beagles were fasted overnight. At zero time, the stomach of each animal was endoscopically examined to assure a normal mucosa. Encapsulated compositions containing about 15 mEq MgO in the freshly prepared MgO-CD complex and 975 mg aspirin (ASA) were administered orally and flushed with 50 ml water.
In addition, a sample of gastric fluid was obtained from the antrum, and its general appearance noted and its pH measured.
(§2) wherein n is the number of animals, % Protection is the difference in irritation scores (on the scale of 0 to 7) between Control A and the MgO-CD complex divided by the irritation score for Control A multiplied by 100, and pH is the pH of the antrum fluid sample. The complex of the present invention is seen to have provided a substantial increase in percent protection coupled with a marked increase in pH over the controls.

beagles = test: Endoscopic scoring of aspirin-induced gastric irritation in beagles (scale 0 to 7), percent protection; format: in vivo; settings: oral, with 975 mg aspirin (ASA), antacid about 15 mEq where present; endoscopy at two and four hours; versus Control A (ASA alone)
Procedure: as §1
At two and four hours after administration of the encapsulated composition, the stomachs of the animals were endoscopically reexamined for gastric irritation. Irritation was measured according to a scale of 0 to 7, wherein zero was the condition of the mucosa for a normal stomach and a value of 7 represents massive hemorrhagic damage.
Three control tests were also conducted. In Control A the animals were administered 975 mg ASA. In Control B the animals were administered 6.27 mg α-CD and 975 aspirin and in Control C the animals were administered 15 mEq MgO and 975 aspirin.
as §2

Compound | pH [1] | % Protection (beagles) [%]
O=C(O)O [MgCO₃] | 3.33 ± 0.81 | 2.1 ± 6.1
CaCO₃ | 4.17 ± 0.90 | 3.0 ± 5
CC(=O)Oc1ccccc1C(=O)O [Control A, aspirin] | 3.74 ± 0.44 | 0
[OH][Al]([OH])[OH] [Al(OH)₃] | 4.72 ± 0.85 | 10.8 ± 4.6
